# Publication PMC4257560, “Synthesis and Functional Characterization of Substituted Isoquinolinones as MT2-Selective Melatoninergic Ligands” (PLoS ONE, 2014)
# Like-named read-outs stand apart in the source and are kept apart here. Marks after values point to notes of the source that are not given here.
# Key:
# MT2 [1] = biological target: T1, MT2 (Homo sapiens, UniProt P49286)
# T1 sequence (P49286 1-362): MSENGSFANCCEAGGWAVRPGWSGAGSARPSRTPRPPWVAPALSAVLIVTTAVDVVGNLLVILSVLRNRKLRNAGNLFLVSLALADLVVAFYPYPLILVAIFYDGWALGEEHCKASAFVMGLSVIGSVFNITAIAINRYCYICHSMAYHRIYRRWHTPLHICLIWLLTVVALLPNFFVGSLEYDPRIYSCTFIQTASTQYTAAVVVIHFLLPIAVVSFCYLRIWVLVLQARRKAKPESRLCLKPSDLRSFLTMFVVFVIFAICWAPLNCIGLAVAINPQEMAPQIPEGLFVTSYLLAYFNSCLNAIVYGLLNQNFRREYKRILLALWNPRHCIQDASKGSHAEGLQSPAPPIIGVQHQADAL
# Experimental: (§8) Competitive receptor binding characteristics of melatonin and the 15 tested compounds towards human MT1 and MT2 stably expressed in Chinese hamster ovary (CHO) cells were determined using intact cell preparation pre-incubated with 1 nM [^3H]melatonin.
# (§9) Individual melatonin receptor subtype (either MT1 or MT2) was stably co-expressed with a G protein chimera 16z25 in Chinese hamster ovary (CHO) cells, hereafter denoted as CHO-hMT1 and CHO-hMT2, respectively. […] Single cell-derived colonies of the stable lines with sufficiently high receptor density and robust responses in the fluorometric assay (as described below) were isolated from the pool of transfected cell. Usage of these clonal lines was limited to 15 passages to prevent degradation of signal detection.
# (§10) Competitive binding assays were performed as described [26]. Cells were suspended in binding buffer (50 mM Tris, 2 mM MgCl2, 1 mM EGTA, pH 7.4) in the density of 1.5×10^5 cell/ml. 1 nM [^3H]melatonin and increasing concentrations of a tested compound was included. Cells were incubated at 4°C for 60 min with intermittent agitation and the reaction was stopped by rapid filtration through GF/C filters pre-soaked in 10 mM Tris, pH 7.4 and washed with 1 ml of prechilled binding buffer. Retained radioactivity was measured with Wallac 1450 Microbeta Jet scintillation counter. Competition curves were drawn as one-site competition nonlinear regression model using GraphPad Prism 3.03 to the data which were means ± SEM of 3–4 independent experiments performed in duplicates. In every assay, melatonin was included as standard reference with highly reproducible Ki values, which were calculated using the Cheng-Prusoff equation.
# MT2 [2] = biological target: T1, MT2; assay: biochemical; settings: for Ki: MT2 Ki, calculated from mean pIC50 (Cheng-Prusoff), 1 nM [3H]melatonin, intact CHO cells; for Emax: read-out: MT2 %Resp±SEM (percentage of melatonin-mediated displacement of radioligand binding)
# Experimental: as §8, §9, §10
# MT2 [3] = biological target: T1, MT2; assay: Inhibition of forskolin-stimulated cAMP accumulation in MT2-CHO cells; format: cell-based; set-up: expressed in transfected cells; settings: for IC50: MT2-CHO cells, 50 µM forskolin
# Experimental: (§1) Both MT1 and MT2 are classified as Gi-coupled receptors with their activation leading to inhibition of intracellular cAMP production. The ability of the tested compounds to activate the endogenously expressed Gi-mediated inhibition of cAMP production was therefore examined.
# (§2) All the responses were expressed as the percentage of that induced by forskolin alone (as 100%).
# (§3) 2×10^5 cells were seeded in each well of 12-well plates and grown for overnight. Each well was labeled with 1 ml of [^3H]adenine (1 µCi/ml) in F-12K medium containing 1% FBS (vol/vol) for overnight. The labeling media were then replaced by 1 ml of 20 mM HEPES-buffered F-12K containing 1 mM isobutylmethylxanthine (IBMX) and the tested compounds at desired concentrations, and incubated at 37°C for 30 min. The reaction was stopped by aspiration and adding 1 ml prechilled 5% trichloroacetic acid (w/v) with 1 mM ATP, and stored at 4°C for 30 min. [^3H]cAMP was extracted from the pool of labeled adenosine nucleotides by sequential ion-exchange chromatography as previously described. The radioactivity of labeled cAMP and total labeled nucleotide fractions separated by chromatography were estimated by scintillation counting. Inhibition curves were constructed by non-linear regression using GraphPad Prism 3.
# MT1 [4] = biological target: T2, MT1 (Homo sapiens, UniProt P48039); assay: biochemical; settings: for Emax: read-out: MT1 %Resp±SEM (percentage of melatonin-mediated displacement of radioligand binding)
# Experimental: as §8, §9, §10
# MT1 [5] = biological target: T2, MT1; assay: Inhibition of forskolin-stimulated cAMP accumulation in MT1-CHO cells; format: cell-based; set-up: expressed in transfected cells
# Experimental: as §1, §2, §3
# MT1 [6] = biological target: T2, MT1; assay: Intracellular Ca2+ mobilization (FLIPR) in MT1-CHO cells co-expressing 16z25; format: cell-based; set-up: expressed in transfected cells; settings: for MT1 %Resp ±SEM, Ca2+ signal: percentage of melatonin (MT)-mediated stimulation of Ca2+ signal
# Experimental: (§4) Tested compounds in different concentrations were diluted in assay buffer in 5× of the final desired concentrations in a V-bottomed microplate, and both the cell and compound plates were put into the fluorometric imaging plate reader FLIPR^TETRA (Molecular Devices, Sunnyvale, CA). […] The peak of the time course of fluorescence changes was expressed in relative fluorescence units (RFU). Dose response curves were constructed by non-linear regression using GraphPad Prism 3.
# MT2 [7] = biological target: T1, MT2; assay: Intracellular Ca2+ mobilization (FLIPR) in MT2-CHO cells co-expressing 16z25; format: cell-based; set-up: expressed in transfected cells; settings: for EC50 / Ca2+ mobilization activity at MT2 (in words) / MT2 EC50, Ca2+ mobilization: MT2-CHO cells, FLIPR; for Emax: MT2, percentage of melatonin (MT)-mediated stimulation of Ca2+ signal, read-out: MT2 %Resp ±SEM, Ca2+ signal; for shift of melatonin dose-response curve in FLIPR assay, MT2-CHO (competitive antagonism): preincubation with 10 µM or 1 µM of 7e or 7f
# Experimental: as §4
# MT1 [8] = biological target: T2, MT1; assay: Immunodetection of ERK phosphorylation in MT1-CHO cells; format: cell-based; set-up: expressed in transfected cells; settings: for concentration inducing weak ERK phosphorylation in MT1-CHO cells: immunoblot
# Experimental: (§5) CHO cells expressing MT1 or MT2 were serum-starved before treating with the indicated concentrations of melatonin or individual tested compounds. Resolved proteins were electrotransferred for immunodetection using phosphorylated ERK-specific antibody.
# (§6) (A) CHO cells expressing MT1 or MT2 were treated with the indicated concentrations of 7e or luzindole in the absence or presence of a fixed concentration of melatonin (MLT) (for both MT1 or MT2) or 7b (for MT2 only). Other experimental details were as to the legend of Figure 5. Data shown were representative blots of three separate trials. (B) CHO cells expressing MT2 were treated with increasing concentrations (1 ρM – 1 µM) of melatonin in the absence or presence of 10 µM or 1 µM of 7e or 7f. Other experimental details were as to the legend of Figure 4.
# (§7) 2×10^5 cells were seeded into each well of 12-well plates for overnight before serum withdrawal for 4 h to reduce the basal ERK phosphorylation. Tested compounds were diluted in serum-free culture medium at desired concentrations and treated the cells for 5 min. Reactions was stopped by aspiration and then adding 150 µl of lysis buffer with protease inhibitors (50 mM Tris–HCl, pH 7.5, 100 mM NaCl, 5 mM EDTA, 40 mM NaP2O7, 1% Triton X-100, 1 mM dithiothreitol, 200 µM Na3VO4, 100 µM phenylmethylsulfonyl fluoride, 2 µg/ml leupeptin, 4 µg/ml aprotinin, and 0.7 µg/ml pepstain). Cells were allowed to lyse for 30 min at 4°C with agitation, and the collected total cell lysates were cleared by centrifugation. Protein samples were resolved in SDS-PAGE and transferred to nitrocellulose membranes using iBlot system (Invitrogen). Phosphorylated ERK was detected using specific antibodies as described previously. Chemiluminescence signals on the blots were detected on X-ray films.
# MT2 [9] = biological target: T1, MT2; assay: Immunodetection of ERK phosphorylation in MT2-CHO cells; format: cell-based; set-up: expressed in transfected cells; settings: for suppression of melatonin-induced ERK phosphorylation in MT2-CHO cells (antagonism): 1 nM melatonin (MLT), 7e and 7f at 10 µM; for suppression of 7b-induced ERK phosphorylation in MT2-CHO cells (antagonism): agonist 7b 100 nM, 7e at 10 µM; for ERK phosphorylation in MT2-CHO cells (in words): immunoblot
# Experimental: as §5, §6, §7
# MT1 [10] = biological target: T2, MT1; settings: 1 nM [3H]melatonin, intact CHO cells, 4°C 60 min; mean ± SEM of 3–5 trials; NSB = no specific binding for up to 30 µM
# Experimental: as §8, §9, §10
# [11] = calculated from mean pEC50, NSR = no significant response for up to 30 µM, read-out: MT2 EC50, Ca2+ mobilization
# [12] = calculated from mean pEC50, NSR = no significant response for up to 30 µM
# 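For MT1 pIC50±SEM in this document: competitive radioligand displacement on intact CHO cells stably co-expressing human MT1 together with the G protein chimera 16z25, using rising concentrations of each compound.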
# 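For Selectivity, ratio Ki(MT1)/Ki(MT2) in this document: competition binding on intact CHO cells stably co-expressing human MT2 with G protein chimera 16z25, displacing [3H]melatonin at 4°C over 60 min, melatonin run as reference.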
# 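For displacement of pre-incubated [3H]melatonin at MT2 (in words) in this document: competition binding on intact CHO cells stably co-expressing human MT2 with G protein chimera 16z25, displacing [3H]melatonin at 4°C over 60 min, melatonin run as reference.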
# T2 sequence (P48039 whole entry): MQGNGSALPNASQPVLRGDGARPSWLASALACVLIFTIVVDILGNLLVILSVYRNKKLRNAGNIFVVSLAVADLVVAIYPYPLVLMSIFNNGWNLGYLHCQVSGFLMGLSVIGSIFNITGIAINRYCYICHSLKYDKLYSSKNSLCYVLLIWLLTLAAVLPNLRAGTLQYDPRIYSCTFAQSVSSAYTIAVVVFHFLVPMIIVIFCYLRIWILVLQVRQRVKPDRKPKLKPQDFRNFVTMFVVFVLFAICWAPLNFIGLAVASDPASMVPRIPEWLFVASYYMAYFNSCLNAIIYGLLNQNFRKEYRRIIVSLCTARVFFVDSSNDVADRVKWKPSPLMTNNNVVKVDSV
"Selectivity, ratio Ki(MT1)/Ki(MT2) (MT2 [1])",IC50 (MT2 [2]),Ki (MT2 [2]),Emax (MT2 [2]),IC50 (MT1 [4]),Ki (MT1 [4]),Emax (MT1 [4]),melting point,suppression of melatonin-induced ERK phosphorylation in MT2-CHO cells (antagonism) (MT2 [9]),MT1 pIC50±SEM (MT1 [10]),Ca2+ mobilization activity at MT2 (in words) (MT2 [7]),"MT2 EC50, Ca2+ mobilization (MT2 [7]; [12])",SMILES,also measured
139,0.0891 µM,0.0266 µM,92 ± 4%,16.2 µM,3.7 µM,90 ± 8%,85 to 87 °C,,,,,"COc1cccc(COc2cc3ccn(C)c(=O)c3cc2OC)c1 [7b, 7-Methoxy-6-(3-methoxy-benzyloxy)-2-methylisoquinolin-1(2H)-one]","displacement of pre-incubated [3H]melatonin at MT2 (in words) (MT2 [1]; competitive binding, intact CHO cells): completely displaced; IC50 (MT2 [3]; mean ± SEM of 2 trials, read-out: MT2 pIC50 ±SEM, inhibition of cAMP production (converted)): 0.0631 µM; MT2 %Inhmax ±SEM (MT2 [3]; maximal percentage inhibition of the forskolin-elevated cAMP level, MT2-CHO): 70±3%; inhibition of cAMP levels in MT1-CHO cells (in words) (MT1 [5]; forskolin-stimulated): observable inhibition; MT1 %Inhmax ±SEM (MT1 [5]; maximal percentage inhibition of the forskolin-elevated cAMP level, MT1-CHO): 69±8%; IC50 (MT1 [5]; read-out: MT1 IC50, inhibition of cAMP production): 1.2 µM; EC50 (MT1 [6]): 0.0311 µM; MT1 %Resp ±SEM, Ca2+ signal (MT1 [6]): 63±7%; EC50 (MT2 [7]; [11]): 0.0003 µM; EC50 (MT2 [7]; mean ± SEM of 3–5 trials, read-out: MT2 pEC50 ±SEM, Ca2+ mobilization (converted)): 0.000288 µM; Emax (MT2 [7]): 92 ± 11%; concentration inducing weak ERK phosphorylation in MT1-CHO cells (MT1 [8]): > 1 µM"
37.6,1.17 µM,0.35 µM,73 ± 9%,57.5 µM,13.1 µM,41 ± 9%,,,,,,"COc1cc(COc2cc3ccn(C)c(=O)c3cc2OC)cc(OC)c1 [7c, 6-(3,5-Dimethoxy-benzyloxy)-7-methoxy-2-methylisoquinolin-1(2H)-one]","IC50 (MT2 [3]; calculated from mean pIC50, read-out: MT2 IC50, inhibition of cAMP production): 2.46 µM; MT2 %Inhmax ±SEM, extrapolated (MT2 [3]; extrapolated %Inhmax from non-linear regression, MT2-CHO): 72±3 ^c %; MT1 IC50, inhibition of cAMP production (MT1 [5]; MT1-CHO cells, 50 µM forskolin, calculated from mean pIC50, NSR = no significant response for up to 10 µM): NSR ^b; EC50 (MT1 [6]): 0.266 µM; MT1 %Resp ±SEM, Ca2+ signal (MT1 [6]): 65±10%; EC50 (MT2 [7]; [11]): 0.021 µM; Emax (MT2 [7]): 90 ± 16%; concentration to induce exclusive MT2 activation (Ca2+ signal) (MT2 [7]; from concentration response curves, Figure 4): < 10 nM; fold less potent than 7b (EC50, Ca2+ signal, MT2) (MT2 [7]; relative to 7b, MT2-CHO): ~70 fold; concentration inducing weak ERK phosphorylation in MT1-CHO cells (MT1 [8]): > 1 µM"
,1.12 µM,0.334 µM,47 ± 5%,,,,170 to 172 °C,reduced to almost the basal level,NSB,null response,NSR,"COc1ccc(COc2cc3ccn(C)c(=O)c3cc2OC)cc1 [7e, 7-Methoxy-6-(4-methoxy-benzyloxy)-2-methylisoquinolin-1(2H)-one]","suppression of 7b-induced ERK phosphorylation in MT2-CHO cells (antagonism) (MT2 [9]): significantly suppressed; shift of melatonin dose-response curve in FLIPR assay, MT2-CHO (competitive antagonism) (MT2 [7]): parallel right shift"
6.13,1.1 µM,0.333 µM,70 ± 6%,8.91 µM,2.04 µM,38 ± 10%,120 to 122 °C,partial inhibition,,,NSR,"COc1cc2c(=O)n(C)ccc2cc1OCc1ccc(C)cc1 [7f, 7-Methoxy-2-methyl-6-(4-methyl-benzyloxy)-isoquinolin-1(2H)-one]","shift of melatonin dose-response curve in FLIPR assay, MT2-CHO (competitive antagonism) (MT2 [7]): parallel right shift"
,14.8 µM,4.46 µM,78 ± 8%,,,,132 to 134 °C,,NSB,basically inactive,NSR,"COc1cc2ccn(C)c(=O)c2cc1OCc1ccccc1 [14a, 7-Benzyloxy-6-methoxy-2-methylisoquinolin-1(2H)-one]",ERK phosphorylation in MT2-CHO cells (in words) (MT2 [9]): essentially inactive
,13.8 µM,4.15 µM,73 ± 10%,,,,150 to 152 °C,,NSB,basically inactive,NSR,"COc1cc2ccn(C)c(=O)c2cc1OCc1ccc(C)cc1 [14d, 6-Methoxy-2-methyl-7-(4-methyl-benzyloxy)-isoquinolin-1(2H)-one]",ERK phosphorylation in MT2-CHO cells (in words) (MT2 [9]): essentially inactive

SMILES,"Selectivity, ratio Ki(MT1)/Ki(MT2) (MT2 [1])",IC50 (MT2 [2]),Ki (MT2 [2]),Emax (MT2 [2]),IC50 (MT1 [4]),Ki (MT1 [4]),Emax (MT1 [4]),melting point,suppression of melatonin-induced ERK phosphorylation in MT2-CHO cells (antagonism) (MT2 [9]),MT1 pIC50±SEM (MT1 [10]),Ca2+ mobilization activity at MT2 (in words) (MT2 [7]),"MT2 EC50, Ca2+ mobilization (MT2 [7]; [12])",also measured
"CC(=O)NCCc1c(Cc2ccccc2)[nH]c2ccccc12 [luzindole, reference compound]",,,0.0029 µM,,,0.102 µM,,,blocked,,weak but significant MT2-selective agonistic activity,,suppression of 7b-induced ERK phosphorylation in MT2-CHO cells (antagonism) (MT2 [9]): blocked; effect on basal ERK phosphorylation in MT2-CHO cells (MT2 [9]; luzindole alone): constantly enhanced; suppression of melatonin-induced ERK phosphorylation in MT1-CHO cells (antagonism) (MT1 [8]; 1 nM melatonin (MLT)): blocked; effect on basal ERK phosphorylation in MT1-CHO cells (MT1 [8]; at 1 µM): completely eliminated basal ERK phosphorylation
